From article PMC6986272 (Frontiers in Microbiology, 2020) come the findings set out here.

Molecules are shown by their SMILES.

The first test deals with T1, Brucella melitensis DAPDC (diaminopimelate decarboxylase) (Brucella melitensis, UniProt Q8YJJ9).
T1 construct: gene lysA
T1 sequence (Q8YJJ9 1-421): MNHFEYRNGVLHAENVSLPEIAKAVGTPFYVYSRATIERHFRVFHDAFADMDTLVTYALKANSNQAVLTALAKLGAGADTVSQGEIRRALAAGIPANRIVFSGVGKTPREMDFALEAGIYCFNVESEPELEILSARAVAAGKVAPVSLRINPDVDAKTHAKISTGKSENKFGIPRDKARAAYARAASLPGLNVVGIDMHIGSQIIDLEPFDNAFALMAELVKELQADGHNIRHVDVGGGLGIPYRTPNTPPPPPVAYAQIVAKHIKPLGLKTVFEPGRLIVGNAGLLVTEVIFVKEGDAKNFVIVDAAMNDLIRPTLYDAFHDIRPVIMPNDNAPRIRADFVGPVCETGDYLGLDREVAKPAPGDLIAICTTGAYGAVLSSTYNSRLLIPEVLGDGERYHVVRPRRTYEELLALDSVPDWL
Test: not given
The following applies: 200 mM Tris-HCl pH 8.0, 4 mM α-ketoglutarate, 600 μM NADH, 0.1 mM PLP, excess SDH, DAP 0-20 mM, room temperature.
`NC(CCCC(N)C(=O)O)C(=O)O` (stereo not drawn) [DAP]: the “DAPDC-SDH coupled assay, NADH A340 endpoint” value is given as “hyperbolic behavior of DAPDC activity as a function of DAP concentration”.

A further test deals with T1, Brucella melitensis DAPDC (diaminopimelate decarboxylase).
Test: not given
The following applies: 40 µM.
As for `O.O.O=C([O-])CCNC(=O)c1ccc(N=Nc2ccc([O-])c(C(=O)O)c2)cc1.[Na+].[Na+]` [SID8, S3745], the “Inhibitory rate (%)” value is recorded as 54.83%.
Take `CC(C)(C)C(=O)Oc1ccc(S(=O)(=O)Nc2ccccc2C(=O)NCC(=O)[O-])cc1.O.O.O.O.[Na+]` [SID9, S4666]: the “Inhibitory rate (%)” value is on record as 52.88%.

For another test, the target named is T2, Saccharomyces cerevisiae saccharopine dehydrogenase (SDH) (Saccharomyces cerevisiae, UniProt P38998).
T2 construct: gene LYS1; SDH coding gene in pET30a, Ni-NTA purified, expressed in E. coli BL21(DE3), about 41 kDa
T2 sequence (P38998 2-373): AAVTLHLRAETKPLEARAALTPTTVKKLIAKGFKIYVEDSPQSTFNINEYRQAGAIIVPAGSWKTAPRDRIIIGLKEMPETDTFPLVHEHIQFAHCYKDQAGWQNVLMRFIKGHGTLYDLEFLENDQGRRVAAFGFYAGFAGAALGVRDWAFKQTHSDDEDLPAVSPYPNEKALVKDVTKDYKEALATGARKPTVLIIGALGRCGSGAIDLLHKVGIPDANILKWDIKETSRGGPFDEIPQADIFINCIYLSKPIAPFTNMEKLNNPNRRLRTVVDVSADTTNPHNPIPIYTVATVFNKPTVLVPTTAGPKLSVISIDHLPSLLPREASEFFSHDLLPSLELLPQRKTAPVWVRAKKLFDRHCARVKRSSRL
Briefly: NADH oxidation, A340 endpoint. The test is classed as biochemical. The following applies: 200 mM Tris pH 8.0, 600 μM NADH, α-ketoglutarate, room temperature, 15 min.
Take `NCCCC[C@H](N)C(=O)O` [L-lysine]: the “NADH oxidation, A340 endpoint” value is recorded as “Activity of SDH as a function of the concentration of L-lysine”.

The target of another test is T1, Brucella melitensis DAPDC (diaminopimelate decarboxylase). The test is described as follows: biochemical. The following applies: read-out: Inhibitory rate (%).
Consider `CCN(CCO)CCCC(C)Nc1ccnc2cc(Cl)ccc12` (racemic) [SID6, S4430], for which the inhibition at 40 µM was determined as 56.1%.
For `Nc1nc(=S)c2[nH]cnc2[nH]1` [SID2, S1774], the inhibition at 40 µM amounted to 68.7%.
The same measure, in the same setting: next, `Cc1cccn2c(=O)c(-c3nn[nH]n3)cnc12` [SID5, S4008]: 63.1%.
Still for that read-out and setting: then `CC(C)Nc1cc(-c2c[nH]c(C(=O)N[C@H](CO)c3cccc(Cl)c3)c2)c(Cl)cn1` [SID14, ulixertinib], with 47.3%.
For `C[C@H]1COc2c(N3CCN(C)CC3)c(F)cc3c(=O)c(C(=O)O)cn1c23` [SID7, levofloxacin], the inhibition at 40 µM is 55.3%.
Still for that read-out and setting: next, `COc1cc(C2Oc3ccc(C4Oc5cc(O)cc(O)c5C(=O)C4O)cc3OC2CO)ccc1O` (stereo not drawn) [SID1, S2357]: 70.3%; `CC(=O)c1c(C)c2cnc(Nc3ccc(N4CCNCC4)cn3)nc2n(C2CCCC2)c1=O` [SID10, S1579]: 52.1%.
On to `Cc1c(Cl)cccc1Nc1ccccc1C(=O)O` [SID20, tolfenamic acid], for which the inhibition at 40 µM stood at 44%.
Same read-out and setting: then `CO[C@H]1/C=C/O[C@@]2(C)Oc3c(C)c(O)c4c(O)c(c(/C=N/N5CCN(C)CC5)c(O)c4c3C2=O)NC(=O)/C(C)=C\C=C\[C@H](C)[C@H](O)[C@@H](C)[C@@H](O)[C@@H](C)[C@H](OC(C)=O)[C@@H]1C` [SID11, rifampin], with 51.5%.
For `CCC(=O)c1c(O)cc(O)cc1O` [SID12, S4249], the inhibition at 40 µM amounted to 49.2%.
`CC(NC(C)(C)C)C(=O)c1cccc(Cl)c1` (racemic) [SID13, S2452]: the inhibition at 40 µM was determined as 47.7%.
Take `COc1ccc(-c2nc3ccc(C4=NNC(=O)CC4C)cc3[nH]2)cc1` (stereo not drawn) [SID15, pimobendan]: the inhibition at 40 µM came out at 46.8%.
Consider `Cc1nc(Nc2ncc(C(=O)Nc3c(C)cccc3Cl)s2)cc(N2CCN(CCO)CC2)n1` [SID3, dasatinib monohydrate], for which the inhibition at 40 µM came out at 67.1%.
As to `CC1COc2c(N3CCN(C)CC3)c(F)cc3c(=O)c(C(=O)O)cn1c23` (stereo not drawn) [SID16, S1940], the inhibition at 40 µM was 46.7%.
